Reference: patent US20120029187A1, “HALOALKYLSULFONANILIDE DERIVATIVE” (Nissan Chemical Industries, Ltd., priority 2009, published 2012)

Key:
Assay type in all cases: in vivo
barnyardgrass [1] = test: Test Example 1: herbicidal effects in preemergence treatment under submerged conditions; settings: dose 2.52 g/a
Summary of the method: (§1)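 Submerged conditions, 4 cm water over alluvial soil. Weeds sown and 2.5-leaf rice transplanted; compound applied preemergence to water surface, doses in g per are. Greenhouse, 25 to 30° C., three weeks, then 0–5 mortality rating.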

ducksalad [2] = test: as above; settings: dose 2.52 g/a
Summary of the method: as §1

bulrush [3] = test: as above; settings: dose 2.52 g/a
Summary of the method: as §1

barnyardgrass [4] = test: Test Example 4: herbicidal effect in foliage treatment; settings: dose 3.2 g/a, three weeks after application
Summary of the method: (§2)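 Visual herbicidal scores on a graded scale were recorded three weeks after foliar application. Compounds went on as diluted emulsifiable concentrates at predetermined g/a to plants grown 14 days in a 25 to 30° C greenhouse.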

water foxtail [5] = test: as above; settings: dose 3.2 g/a, three weeks after application
Summary of the method: as §2

redroot pigweed [6] = test: as above; settings: dose 3.2 g/a, three weeks after application
Summary of the method: as §2

beadstraw = test: as above; settings: dose 3.2 g/a, three weeks after application
Summary of the method: as §2

Italian ryegrass [7] = test: as above; settings: dose 3.2 g/a, three weeks after application
Summary of the method: as §2

posumbu knotweed [8] = test: as above; settings: dose 3.2 g/a, three weeks after application
Summary of the method: as §2

common lambsquater [9] = test: as above; settings: dose 3.2 g/a, three weeks after application
Summary of the method: as §2

common chickweed [10] = test: as above; settings: dose 3.2 g/a, three weeks after application
Summary of the method: as §2

velvetleaf [11] = test: as above; settings: dose 3.2 g/a, three weeks after application
Summary of the method: as §2

giant foxtail [12] = test: as above; settings: dose 3.2 g/a, three weeks after application
Summary of the method: as §2

common ragweed [13] = test: as above; settings: dose 3.2 g/a, three weeks after application
Summary of the method: as §2

large crabgrass [14] = test: as above; settings: dose 3.2 g/a, three weeks after application
Summary of the method: as §2

barnyardgrass [15] = test: Test Example 3: herbicidal effects in soil treatment; settings: dose 3.2 g/a
Summary of the method: (§3)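 Seeds were sown in sterilized diluvial soil and covered with about 1.5 cm of soil. Compounds, formulated as emulsifiable concentrates and diluted with water, were sprayed evenly over the soil surface at set doses in g/a. Herbicidal effect was scored on a rating scale three weeks later.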

water foxtail [16] = test: as above; settings: dose 3.2 g/a
Summary of the method: as §3

redroot pigweed [17] = test: as above; settings: dose 3.2 g/a
Summary of the method: as §3

Italian ryegrass [18] = test: as above; settings: dose 3.2 g/a
Summary of the method: as §3

posumbu knotweed [19] = test: as above; settings: dose 3.2 g/a
Summary of the method: as §3

common lambsquater [20] = test: as above; settings: dose 3.2 g/a
Summary of the method: as §3

common chickweed [21] = test: as above; settings: dose 3.2 g/a
Summary of the method: as §3

velvetleaf [22] = test: as above; settings: dose 3.2 g/a
Summary of the method: as §3

giant foxtail [23] = test: as above; settings: dose 3.2 g/a
Summary of the method: as §3

common ragweed [24] = test: as above; settings: dose 3.2 g/a
Summary of the method: as §3

large crabgrass [25] = test: as above; settings: dose 3.2 g/a
Summary of the method: as §3

barnyardgrass [26] = test: Test Example 2: herbicidal effects during the vegetation period under submerged conditions; settings: treatment during the vegetation period under submerged conditions; dose 2.52 g/a
Summary of the method: (§4)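 Barnyardgrass, bulrush and ducksalad were co-sown in alluvial soil flooded to 4 cm and grown in a greenhouse at 25 to 30° C. At the 1- or 2-leaf stage, water-diluted emulsifiable concentrates went onto the water surface at set doses (g/a). Herbicidal effect was scored three weeks later on a graded scale.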

ducksalad [27] = test: as above; settings: treatment during the vegetation period under submerged conditions; dose 2.52 g/a
Summary of the method: as §4

bulrush [28] = test: as above; settings: treatment during the vegetation period under submerged conditions; dose 2.52 g/a
Summary of the method: as §4

transplanted rice = test: Test Example 1: preemergence treatment under submerged conditions, effect on crop; settings: dose 2.52 g/a
Summary of the method: as §1

SMILES | A: barnyardgrass, herbicidal effect (evaluation scale 0-5) (barnyardgrass [1]) | C: ducksalad, herbicidal effect (evaluation scale 0-5) (ducksalad [2]) | B: bulrush, herbicidal effect (evaluation scale 0-5) (bulrush [3]) | A: barnyardgrass, herbicidal effect (barnyardgrass [4]) | G: water foxtail, herbicidal effect (water foxtail [5]) | K: redroot pigweed, herbicidal effect (redroot pigweed [6]) | O: beadstraw, herbicidal effect (beadstraw) | H: Italian ryegrass, herbicidal effect (Italian ryegrass [7]) | M: posumbu knotweed, herbicidal effect (posumbu knotweed [8]) | L: common lambsquater, herbicidal effect (common lambsquater [9]) | N: common chickweed, herbicidal effect (common chickweed [10]) | I: velvetleaf, herbicidal effect (velvetleaf [11]) | E: giant foxtail, herbicidal effect (giant foxtail [12]) | J: common ragweed, herbicidal effect (common ragweed [13]) | D: large crabgrass, herbicidal effect (large crabgrass [14]) | A: barnyardgrass, herbicidal effect (evaluation scale 0-5) (barnyardgrass [15]) | G: water foxtail, herbicidal effect (evaluation scale 0-5) (water foxtail [16]) | K: redroot pigweed, herbicidal effect (evaluation scale 0-5) (redroot pigweed [17]) | H: Italian ryegrass, herbicidal effect (evaluation scale 0-5) (Italian ryegrass [18]) | M: posumbu knotweed, herbicidal effect (evaluation scale 0-5) (posumbu knotweed [19]) | further results
COCC1(C)CC(=O)N(Cc2ccccc2NS(=O)(=O)C(F)(F)F)CO1 (stereo not drawn) [II-54] | 5 (mortality of 90% or above (nearly complete death)) | 5 (mortality of 90% or above (nearly complete death)) | 5 (mortality of 90% or above (nearly complete death)) | 5 (mortality of 90% or above (nearly complete death)) | 5 (mortality of 90% or above (nearly complete death)) | 1 (mortality of at least 5% and less than 20%) | 4 (mortality of at least 70% and less than 90%) | 5 (mortality of 90% or above (nearly complete death)) | 2 (mortality of at least 20% and less than 40%) | 2 (mortality of at least 20% and less than 40%) | 4 (mortality of at least 70% and less than 90%) | 5 (mortality of 90% or above (nearly complete death)) | 5 (mortality of 90% or above (nearly complete death)) | 4 (mortality of at least 70% and less than 90%) | 4 (mortality of at least 70% and less than 90%) | 5 (mortality of 90% or above (nearly complete death)) | 5 (mortality of 90% or above (nearly complete death)) | 3 (mortality of at least 40% and less than 70%) | 5 (mortality of 90% or above (nearly complete death)) | 5 (mortality of 90% or above (nearly complete death)) | L: common lambsquater, herbicidal effect (evaluation scale 0-5) (common lambsquater [20]): 3 (mortality of at least 40% and less than 70%); N: common chickweed, herbicidal effect (evaluation scale 0-5) (common chickweed [21]): 5 (mortality of 90% or above (nearly complete death)); I: velvetleaf, herbicidal effect (evaluation scale 0-5) (velvetleaf [22]): 5 (mortality of 90% or above (nearly complete death)); E: giant foxtail, herbicidal effect (evaluation scale 0-5) (giant foxtail [23]): 5 (mortality of 90% or above (nearly complete death)); J: common ragweed, herbicidal effect (evaluation scale 0-5) (common ragweed [24]): 4 (mortality of at least 70% and less than 90%); D: large crabgrass, herbicidal effect (evaluation scale 0-5) (large crabgrass [25]): 5 (mortality of 90% or above (nearly complete death)); A: barnyardgrass, herbicidal effect (evaluation scale 0-5) (barnyardgrass [26]): 5 (mortality of 90% or above (nearly complete death)); C: ducksalad, herbicidal effect (evaluation scale 0-5) (ducksalad [27]): 5 (mortality of 90% or above (nearly complete death)); B: bulrush, herbicidal effect (evaluation scale 0-5) (bulrush [28]): 5 (mortality of 90% or above (nearly complete death)); a: transplanted rice, effect on crop (evaluation scale 0-5) (transplanted rice): 0 (mortality of less than 5% (almost ineffective))
CCOC(=O)N(c1ccccc1CN1COC(C)(COC)CC1=O)S(=O)(=O)C(F)(F)F (stereo not drawn) [II-55] | 5 (mortality of 90% or above (nearly complete death)) | 5 (mortality of 90% or above (nearly complete death)) | 5 (mortality of 90% or above (nearly complete death)) | 5 (mortality of 90% or above (nearly complete death)) | 5 (mortality of 90% or above (nearly complete death)) | 0 (mortality of less than 5% (almost ineffective)) | 4 (mortality of at least 70% and less than 90%) | 5 (mortality of 90% or above (nearly complete death)) | 3 (mortality of at least 40% and less than 70%) | 4 (mortality of at least 70% and less than 90%) | 4 (mortality of at least 70% and less than 90%) | 5 (mortality of 90% or above (nearly complete death)) | 5 (mortality of 90% or above (nearly complete death)) | 4 (mortality of at least 70% and less than 90%) | 4 (mortality of at least 70% and less than 90%) | 5 (mortality of 90% or above (nearly complete death)) | 5 (mortality of 90% or above (nearly complete death)) | 3 (mortality of at least 40% and less than 70%) | 5 (mortality of 90% or above (nearly complete death)) | 5 (mortality of 90% or above (nearly complete death)) | L: common lambsquater, herbicidal effect (evaluation scale 0-5) (common lambsquater [20]): 4 (mortality of at least 70% and less than 90%); N: common chickweed, herbicidal effect (evaluation scale 0-5) (common chickweed [21]): 5 (mortality of 90% or above (nearly complete death)); I: velvetleaf, herbicidal effect (evaluation scale 0-5) (velvetleaf [22]): 5 (mortality of 90% or above (nearly complete death)); E: giant foxtail, herbicidal effect (evaluation scale 0-5) (giant foxtail [23]): 5 (mortality of 90% or above (nearly complete death)); J: common ragweed, herbicidal effect (evaluation scale 0-5) (common ragweed [24]): 5 (mortality of 90% or above (nearly complete death)); D: large crabgrass, herbicidal effect (evaluation scale 0-5) (large crabgrass [25]): 5 (mortality of 90% or above (nearly complete death)); A: barnyardgrass, herbicidal effect (evaluation scale 0-5) (barnyardgrass [26]): 5 (mortality of 90% or above (nearly complete death)); C: ducksalad, herbicidal effect (evaluation scale 0-5) (ducksalad [27]): 5 (mortality of 90% or above (nearly complete death)); B: bulrush, herbicidal effect (evaluation scale 0-5) (bulrush [28]): 5 (mortality of 90% or above (nearly complete death)); a: transplanted rice, effect on crop (evaluation scale 0-5) (transplanted rice): 0 (mortality of less than 5% (almost ineffective))
